Test results: patent US11820766B2, “Monoacylglycerol lipase modulators” (Janssen Pharmaceutica NV, priority 2018, dated 2023)
Counter-ions that a name gives are not always drawn.

Each compound was assayed against T1, human MGL from HeLa cells (Homo sapiens, UniProt Q99685) (assay: In vitro MGL activity assay: [glycerol-1,3-3H]-oleyl glycerol cleavage by MGL from HeLa cells). Settings: 300 nM [Glycerol-1,3-3H]-oleyl glycerol, one hour.
T1 construct: combining endogenously expressed MGL from HeLa cells with test compounds; endogenous in cells; host or cells: HeLa cells / cell homogenates
T1 sequence (Q99685 1-303): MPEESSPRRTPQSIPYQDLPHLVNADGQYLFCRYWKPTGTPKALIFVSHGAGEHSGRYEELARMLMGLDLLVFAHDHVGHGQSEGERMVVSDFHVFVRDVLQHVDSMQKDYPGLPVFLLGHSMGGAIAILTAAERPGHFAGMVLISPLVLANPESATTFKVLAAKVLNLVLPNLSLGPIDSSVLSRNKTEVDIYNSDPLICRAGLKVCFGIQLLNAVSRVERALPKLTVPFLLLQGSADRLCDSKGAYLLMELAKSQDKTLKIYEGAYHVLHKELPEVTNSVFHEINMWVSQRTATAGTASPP
Assay type: biochemical
Text: MGL is the predominant hydrolase in HeLa cells/cell homogenates.

IC50 [nM] | Compound
173 | C[C@H]1c2nn(C)c(-c3cc(F)c(F)c(F)c3)c2CCN1C(=O)c1ccc2c(c1)OCC(=O)N2C [Example 590, 7-[(7S)-2,7-Dimethyl-3-(3,4,5-trifluorophenyl)-5,7-dihydro-4H-pyrazolo[3,4-c]pyridine-6-carbonyl]-4-methyl-1,4-benzoxazin-3-one.TFA salt]
18.2 | COc1cncc(F)c1C(=O)N1CCc2c(nn(C)c2-c2cc(F)c(F)c(F)c2)[C@@H]1C [Example 607, [(7S)-2,7-Dimethyl-3-(3,4,5-trifluorophenyl)-5,7-dihydro-4H-pyrazolo[3,4-c]pyridin-6-yl]-(3-fluoro-5-methoxy-4-pyridyl)methanone]
104 | C[C@H]1c2nn(C)c(-c3cc(F)c(F)c(F)c3)c2CCN1C(=O)c1nccc2cnn(C)c12 [Example 433, [(7S)-2,7-Dimethyl-3-(3,4,5-trifluorophenyl)-5,7-dihydro-4H-pyrazolo[3,4-c]pyridin-6-yl]-(1-methylpyrazolo[3,4-c]pyridin-7-yl)methanone]
120 | C[C@H]1c2nn(C)c(-c3cc(F)c(F)c(F)c3)c2CCN1C(=O)c1cnc2n1CCCC2 [Example 560, [(7S)-2,7-Dimethyl-3-(3,4,5-trifluorophenyl)-5,7-dihydro-4H-pyrazolo[3,4-c]pyridin-6-yl]-(5,6,7,8-tetrahydroimidazo[1,2-a]pyridin-3-yl)methanone]
717 | C[C@H]1c2nn(C)c(-c3cc(F)c(F)c(F)c3)c2CCN1C(=O)c1cnc2n1CCOC2 [Example 562, 6,8-Dihydro-5H-imidazo[2,1-c][1,4]oxazin-3-yl-[(7S)-2,7-dimethyl-3-(3,4,5-trifluorophenyl)-5,7-dihydro-4H-pyrazolo[3,4-c]pyridin-6-yl]methanone]
120 | Cc1cccc2c(C(=O)N3CCc4c(nn(C)c4-c4cc(F)c(F)c(F)c4)[C@@H]3C)c(C3CC3)nn12 [Example 385, (2-Cyclopropyl-7-methyl-pyrazolo[1,5-a]pyridin-3-yl)-[(7S)-2,7-dimethyl-3-(3,4,5-trifluorophenyl)-5,7-dihydro-4H-pyrazolo[3,4-c]pyridin-6-yl]methanone]
175 | C[C@H]1c2nn(C)c(-c3cc(F)c(F)c(F)c3)c2CCN1C(=O)c1n[nH]c2cccnc12 [Example 436, [(7S)-2,7-Dimethyl-3-(3,4,5-trifluorophenyl)-5,7-dihydro-4H-pyrazolo[3,4-c]pyridin-6-yl]-(1H-pyrazolo[4,3-b]pyridin-3-yl)methanone]
50.5 | Cc1ccn2c(C(=O)N3CCc4c(nn(C)c4-c4cc(F)c(F)c(F)c4)[C@@H]3C)c(C)nc2c1 [Example 404, (2,7-Dimethylimidazo[1,2-a]pyridin-3-yl)-[(7S)-2,7-dimethyl-3-(3,4,5-trifluorophenyl)-5,7-dihydro-4H-pyrazolo[3,4-c]pyridin-6-yl]methanone]
18.6 | C[C@H]1c2nn(C)c(-c3cc(F)c(F)c(F)c3)c2CCN1C(=O)c1cn(C)c2ccc(F)cc12 [Example 356, [(7S)-2,7-Dimethyl-3-(3,4,5-trifluorophenyl)-5,7-dihydro-4H-pyrazolo[3,4-c]pyridin-6-yl]-(5-fluoro-1-methyl-indol-3-yl)methanone]
17.4 | C[C@H]1c2nn(C)c(-c3ccc4occc4c3)c2CCN1C(=O)c1ccc2ncccc2c1 [Example 533, [(7S)-3-(Benzofuran-5-yl)-2,7-dimethyl-5,7-dihydro-4H-pyrazolo[3,4-c]pyridin-6-yl]-(6-quinolyl)methanone]

Same assay, conditions: 300 nM [Glycerol-1,3-3H]-oleyl glycerol, one hour incubation

IC50 [nM] | Compound
0.69 | COc1cc(C(=O)N2CCc3c(nn(C)c3-c3cc(F)c(F)c(F)c3)[C@@H]2C)c2ccccc2n1 [Example 240, (S)-(2,7-Dimethyl-3-(3,4,5-trifluorophenyl)-2,4,5,7-tetrahydro-6H-pyrazolo[3,4-c]pyridin-6-yl)(2-methoxyquinolin-4-yl)methanone]
23.6 | Cn1nc2c(c1-c1ccccc1)CCN(C(=O)c1cccc3[nH]ccc13)C2 [Example 42, (1H-Indol-4-yl)(2-methyl-3-phenyl-2,4,5,7-tetrahydro-6H-pyrazolo[3,4-c]pyridin-6-yl)methanone]
15.6 | Cn1nc2c(c1-c1ccccc1)CCN(C(=O)c1cccc3c1ccn3C)C2 [Example 51, (1-Methyl-1H-indol-4-yl)(2-methyl-3-phenyl-2,4,5,7-tetrahydro-6H-pyrazolo[3,4-c]pyridin-6-yl)methanone]
9.01 | C[C@H]1c2nn(C)c(-c3cc(F)c(F)c(F)c3)c2CCN1C(=O)c1cc(F)ccc1-n1cncn1 [Example 281, [(7S)-2,7-Dimethyl-3-(3,4,5-trifluorophenyl)-5,7-dihydro-4H-pyrazolo[3,4-c]pyridin-6-yl]-[5-fluoro-2-(1,2,4-triazol-1-yl)phenyl]methanone]
189 | COc1ccc(C(=O)N2CCc3c(nn(C)c3-c3cc(F)c(F)c(F)c3)[C@@H]2C)c(C)n1 [Example 306, [(7S)-2,7-Dimethyl-3-(3,4,5-trifluorophenyl)-5,7-dihydro-4H-pyrazolo[3,4-c]pyridin-6-yl]-(6-methoxy-2-methyl-3-pyridyl)methanone]
126 | Cn1nc2c(c1-c1ccccc1)CCN(C(=O)c1cccc3cccnc13)C2 [Example 93, (2-Methyl-3-phenyl-2,4,5,7-tetrahydro-6H-pyrazolo[3,4-c]pyridin-6-yl)(quinolin-8-yl)methanone]
56.2 | Cn1nc2c(c1-c1ccccc1)CCN(C(=O)c1ccc3[nH]ncc3c1)C2 [Example 64, (1H-Indazol-5-yl)(2-methyl-3-phenyl-2,4,5,7-tetrahydro-6H-pyrazolo[3,4-c]pyridin-6-yl)methanone]
1660 | Cc1ccc(C(=O)N2CCc3c(nn(C)c3-c3cc(F)c(F)c(F)c3)[C@@H]2C)cc1-n1cnnc1 [Example 294, [(7S)-2,7-Dimethyl-3-(3,4,5-trifluorophenyl)-5,7-dihydro-4H-pyrazolo[3,4-c]pyridin-6-yl]-[4-methyl-3-(1,2,4-triazol-4-yl)phenyl]methanone]
96.3 | COc1cc(C(=O)N2CCc3c(nn(C)c3-c3cc(F)c(F)c(F)c3)[C@@H]2C)cnc1C [Example 310, [(7S)-2,7-Dimethyl-3-(3,4,5-trifluorophenyl)-5,7-dihydro-4H-pyrazolo[3,4-c]pyridin-6-yl]-(5-methoxy-6-methyl-3-pyridyl)methanone]
7.36 | CC1c2nn(C)c(-c3cc(F)cc(F)c3)c2CCN1C(=O)c1ccc2ncccc2c1 (centres unmarked) [Example 106, (3-(3,5-Difluorophenyl)-2,7-dimethyl-2,4,5,7-tetrahydro-6H-pyrazolo[3,4-c]pyridin-6-yl)(quinolin-6-yl)methanone]
136 | Cn1nc2c(c1-c1ccccc1)CCN(C(=O)c1ccc3sccc3c1)C2 [Example 39, Benzo[b]thiophen-5-yl(2-methyl-3-phenyl-2,4,5,7-tetrahydro-6H-pyrazolo[3,4-c]pyridin-6-yl)methanone]
7.25 | COc1cccc(C(=O)N2CCc3c(nn(C)c3-c3cc(F)c(F)c(F)c3)[C@@H]2C)c1 [Example 260, [(7S)-2,7-Dimethyl-3-(3,4,5-trifluorophenyl)-5,7-dihydro-4H-pyrazolo[3,4-c]pyridin-6-yl]-(3-methoxyphenyl)methanone]
7.3 | C[C@H]1c2nn(C)c(-c3cc(F)cc(F)c3)c2CCN1C(=O)c1ccc2ncccc2c1 (single isomer, unassigned) [Example 159]
